# In publication PMC8705818, “Experimental Characterization of the Interaction between the N-Terminal SH3 Domain of Crkl and C3G” (International Journal of Molecular Sciences, 2021):
# Peptide text beside a SMILES is read from it. * marks the point of attachment. Dansyl = CN(C)c1cccc2c(S(=O)(=O)*)cccc12
# Assays:
# N-SH3 D138A (Crkl) = target: T1, N-SH3 D138A (Crkl) (Homo sapiens, UniProt P46109, D138A); test: Stopped-flow kinetic binding, N-SH3 D138A versus C3G277–296; conditions: pH 7.5, D138A, 50 mM Hepes pH 7.5, 10 °C
# T1 construct: The construct encoding the N-SH3 domain of Crkl was subcloned in a pET28b+ plasmid vector; His-tag; made in house; host or cells: E. coli BL21
# T1 sequence (P46109 123-183 D138A limits assumed): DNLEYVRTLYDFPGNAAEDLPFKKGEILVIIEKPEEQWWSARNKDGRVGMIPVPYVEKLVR
# Method: (§1) We rapidly mixed a constant concentration of C3G277–296 peptide (0.5 µM) versus increasing concentrations of N-SH3 (ranging from 0.5 to 5 µM) and the observed rate constants (kobs) obtained at different ionic strength conditions (buffer Hepes 50 mM, pH 7.0, 0.15 M, 0.3 M, 0.5 M and 1 M NaCl) were plotted as function of concentration of N-SH3 and fitted with a linear equation (Figure 1). By following previously derived equations [19, 20], the dependence of kobs as function of [N-SH3] was fitted with Equation (1), taking into account the non-pseudo-first order conditions, allowing us to calculate the microscopic association rate constant (kon), the microscopic dissociation rate constant (koff) of the binding reaction and the equilibrium dissociation rate constant KD, such as koff/kon. To increase the reliability of the calculated KD, we resorted to directly obtaining a koff value through displacement experiments (Table 1), in which a preincubated complex of N-SH3 domain and dansylated C3G277–296 peptide (at the concentration of 0.5 and 2 µM, respectively) were rapidly mixed versus a high excess of nondansylated peptide (ranging from 20 to 40 µM). In agreement with the theory in [21], the observed rate constants were insensitive to displacer concentration. In all binding and displacement experiments conducted, traces were satisfactorily fitted with a single-exponential equation. (1) kobs=(kon^2∗(2−[NSH3])^2+koff^2+2konkoff(2+[NSH3]))^1/2
# Then, we employed D138A, E140A and D141A variants in kinetic binding experiments with C3G, and we explored the effect of increasing ionic strength on the binding reaction of these variants.
# (§2) Kinetic binding experiments were performed on a single-mixing SX-18 stopped-flow instrument (Applied Photophysics), by mixing a constant concentration (0.5 μM) of C3G dansylated versus increasing concentrations of N-SH3 at 10 °C. Ionic strength dependence of wt N-SH3 was performed with concentrations ranging from 1 to 5 µM for 0 M NaCl condition and from 0.5 to 5 µM for 0.15 M, 0.3 M, 0.5 M and 1 M NaCl, buffer Hepes 50 mM pH 7.0. The excitation wavelength was 280 nm, and fluorescence was collected using a 455 nm cut-off filter. At least, five independent acquisitions were collected and averaged for each experiment. The resulting averages were all satisfactorily fitted with a single-exponential equation. Buffers used for pH dependence were: 50 mM Sodium Acetate pH 5.0, 50 mM Sodium Acetate, pH 5.5, Bis–Tris 50 mM pH 6.0, Bis–Tris 50 mM pH 6.5, Hepes 50 mM pH 7.0, Hepes 50 mM pH 7.5, Tris–HCl 50 mM pH 8.0, Tris–HCl 50 mM pH 8.5, Tris–HCl 50 mM pH 9.0, all with added 0.5 M NaCl. […]
# N-SH3 E140A (Crkl) = target: T2, N-SH3 E140A (Crkl) (Homo sapiens, UniProt P46109, E140A); test: Stopped-flow displacement, N-SH3 E140A:dansylated C3G277–296 complex; type: binding; conditions: pH 7.5, E140A, 50 mM Hepes pH 7.5, 10 °C
# T2 construct: The construct encoding the N-SH3 domain of Crkl was subcloned in a pET28b+ plasmid vector; His-tag; made in house; host or cells: E. coli BL21
# T2 sequence (P46109 123-183 E140A limits assumed): as the sequence (P46109 123-183 D138A limits assumed) above, with A16D, E18A counted along it
# Method: as §1
# as §2, with “NaCl. Concentrations of N-SH3 used for each experiment were: 4.0–8.0 µM at pH 5.0, 2.0–7.0 µM at pH 5.5, 1.0–5.0 µM at pH 6.0, 0.5–5.0 µM at pH 6.5, 1.5–6.0 µM at pH 7.0, 0.5–5.0 µM at pH 7.5, 1.5–6.0 µM at pH 8.0, 1.5–6.0 µM pH 8.5, 1.5–6.0 µM at pH 9.0.” for “NaCl.”
compound,measurement,setting,value
CC(C)C[C@H](NC(=O)[C@H](C)NC(=O)[C@@H]1CCCN1C(=O)[C@@H]1CCCN1C(=O)[C@@H]1CCCN1C(=O)[C@H](CO)NC(=O)[C@H](CC(N)=O)NC(=O)[C@H](CC(=O)O)NC(=O)[C@@H](NC(=O)[C@@H](NS(=O)(=O)c1cccc2c(N(C)C)cccc12)C(C)C)C(C)C)C(=O)N1CCC[C@H]1C(=O)N1CCC[C@H]1C(=O)N[C@@H](CCCCN)C(=O)N[C@@H](CCCCN)C(=O)N[C@@H](CCCNC(=N)N)C(=O)N[C@@H](CCC(N)=O)C(=O)N[C@@H](CO)C(=O)N[C@@H](C)C(=O)N1CCC[C@H]1C(=O)N[C@@H](CO)C(=O)O [C3G277–296] (Dansyl-VVDNSPPPALPPKKRQSAPS-OH),kon,"N-SH3 D138A (Crkl); 0 M NaCl, 0.5 µM dansylated peptide vs 2.0–4.5 µM N-SH3 D138A",1.58e+08 ± 1.2e+07 M⁻¹ s⁻¹
same,kon,"N-SH3 D138A (Crkl); 0.05 M NaCl, 0.5 µM dansylated peptide vs 2.5–6.0 µM N-SH3 D138A",8.1e+07 ± 8e+06 M⁻¹ s⁻¹
same,kon,"N-SH3 D138A (Crkl); 0.10 M NaCl, 0.5 µM dansylated peptide vs 2.5–6.0 µM N-SH3 D138A",4.8e+07 ± 8e+06 M⁻¹ s⁻¹
same,kon,"N-SH3 D138A (Crkl); 0.15 M NaCl, 0.5 µM dansylated peptide vs 2.5–6.0 µM N-SH3 D138A",1.2e+07 ± 5e+06 M⁻¹ s⁻¹
same,koff,N-SH3 E140A (Crkl); 0 M NaCl,254 ± 3 s⁻¹
same,koff,N-SH3 E140A (Crkl); 0.05 M NaCl,330 ± 3 s⁻¹
same,koff,N-SH3 E140A (Crkl); 0.10 M NaCl,302 ± 2 s⁻¹
same,koff,N-SH3 E140A (Crkl); 0.15 M NaCl,339 ± 2 s⁻¹
